Assay results from ChEMBL document CHEMBL1201862, “PubChem BioAssay data set” (2004).
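Compound exposure: 48 hours, 5 concentrations, 96-well plates. GI50 = concentration required for 50% inhibition of growth.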 The source made the active and inactive calls. Cut-off read from the data, not from the text of the source: active = GI50 up to about 1.1 µM and inactive = higher.

What was measured:
Test in all cases: inhibition of tumour cell growth, NCI panel, 48 h
OVCAR-4 = test system: OVCAR-4
NCI-H23 = test system: NCI-H23
A498 = test system: A498
HOP-92 = test system: HOP-92
A549 = test system: A549
U-251 = test system: U-251
RPMI-8226 = test system: RPMI-8226
SK-MEL-28 = test system: SK-MEL-28
XF498 = test system: XF498
SF-268 = test system: SF-268
UO-31 = test system: UO-31
SNB-75 = test system: SNB-75
Malme-3M = test system: Malme-3M
HOP-62 = test system: HOP-62
SR = test system: SR
UACC-62 = test system: UACC-62
Hs-578T = test system: Hs-578T
MDA-MB-231 = test system: MDA-MB-231
MDA-N = test system: MDA-N
NCI/ADR-RES = test system: NCI/ADR-RES

Row | SMILES | GI50 (OVCAR-4) | GI50 (NCI-H23) | GI50 (A498) | GI50 (HOP-92) | GI50 (A549) | GI50 (U-251) | GI50 (RPMI-8226) | GI50 (SK-MEL-28) | GI50 (XF498) | GI50 (SF-268) | GI50 (UO-31) | GI50 (SNB-75) | GI50 (Malme-3M) | GI50 (HOP-62) | GI50 (SR) | GI50 (UACC-62) | GI50 (Hs-578T) | GI50 (MDA-MB-231) | GI50 (MDA-N) | GI50 (NCI/ADR-RES)
1 | Cc1ccc(S(=O)(=O)Nc2cccc(C)c2C)cc1 | 19.5 µM (inactive) | 28.1 µM (inactive) | > 100 µM (inactive) | 29.5 µM (inactive) | 59.6 µM (inactive) | 28.4 µM (inactive) | > 100 µM (inactive) | 30.4 µM (inactive) | < 0.01 µM (active) | 86.7 µM (inactive) | 30.8 µM (inactive) | 22.5 µM (inactive) | 96.8 µM (inactive) | 86.3 µM (inactive) | 52.5 µM (inactive) | 66.1 µM (inactive) |  |  |  | 
2 | COC(=O)c1c(O)ccc(O)c1C(C(C)=O)C(C)=O | > 100 µM (inactive) | > 100 µM (inactive) | > 100 µM (inactive) | > 100 µM (inactive) | > 100 µM (inactive) | > 100 µM (inactive) | > 100 µM (inactive) | > 100 µM (inactive) | > 100 µM (inactive) | > 100 µM (inactive) | > 100 µM (inactive) | > 100 µM (inactive) | > 100 µM (inactive) | > 100 µM (inactive) |  | 96.6 µM (inactive) |  |  |  | 
3 | O=C1NC(=S)NC(=O)C1=Cc1ccc[nH]1 | 15.3 µM (inactive) | 12.4 µM (inactive) | 35.2 µM (inactive) | 19.6 µM (inactive) | 26.7 µM (inactive) | 27.1 µM (inactive) | 3.41 µM (inactive) | 24.5 µM (inactive) | 17.7 µM (inactive) | 22.6 µM (inactive) | 16.6 µM (inactive) | 18 µM (inactive) | 19.9 µM (inactive) | 32.6 µM (inactive) | 3.62 µM (inactive) | 16.7 µM (inactive) |  |  |  | 
4 | Oc1c(Cl)c2nccnc2c2ccccc12 | > 100 µM (inactive) | > 100 µM (inactive) | > 100 µM (inactive) | > 100 µM (inactive) | > 100 µM (inactive) | > 100 µM (inactive) | > 100 µM (inactive) | > 100 µM (inactive) | > 100 µM (inactive) | > 100 µM (inactive) | > 100 µM (inactive) | > 100 µM (inactive) | > 100 µM (inactive) |  |  | > 100 µM (inactive) |  |  |  | 
5 | Cc1[nH]c2ccccc2c1C(=O)CC1(O)C(=O)Nc2c(Cl)cc(Cl)cc21 (stereo unspecified) | 9.75 µM (inactive) | 19.5 µM (inactive) | 33 µM (inactive) |  | 36.1 µM (inactive) | 30.1 µM (inactive) | 25.5 µM (inactive) | 27 µM (inactive) | 18.2 µM (inactive) | 25.3 µM (inactive) | 26.3 µM (inactive) | 27.9 µM (inactive) | 18.9 µM (inactive) | 46.9 µM (inactive) | 28.4 µM (inactive) |  |  |  |  | 
6 | CC1=C(C(=O)Nc2ccccc2C)C(c2ccccc2C)C(C(=O)Nc2ccccc2C)=C(C)N1 | 24.4 µM (inactive) | 21.5 µM (inactive) | 16.8 µM (inactive) | 10.1 µM (inactive) | 30.6 µM (inactive) | 19.5 µM (inactive) | 24 µM (inactive) | 19.9 µM (inactive) | 18.7 µM (inactive) | 20.4 µM (inactive) | 14.5 µM (inactive) | 22.4 µM (inactive) | 18.2 µM (inactive) | 25.2 µM (inactive) | 24.2 µM (inactive) |  |  |  |  | 
7 | NC1C2(CCCCCC2)NC(=O)C12CCCCCC2 (stereo unspecified) | > 100 µM (inactive) | > 100 µM (inactive) | > 100 µM (inactive) | > 100 µM (inactive) | > 100 µM (inactive) | > 100 µM (inactive) |  | > 100 µM (inactive) | > 100 µM (inactive) | > 100 µM (inactive) | > 100 µM (inactive) | > 100 µM (inactive) | > 100 µM (inactive) | > 100 µM (inactive) | > 100 µM (inactive) | > 100 µM (inactive) |  |  |  | 
8 | O=C1c2c(O)cccc2C(C(=O)CCCCC(=O)C2c3cccc(O)c3C(=O)c3c(O)cccc32)c2cccc(O)c21 | 0.782 µM (active) | 0.618 µM (active) | 1.56 µM (inactive) | 0.627 µM (active) | 0.483 µM (active) | 0.433 µM (active) | 0.457 µM (active) | 0.877 µM (active) | 0.501 µM (active) | 0.69 µM (active) | 0.504 µM (active) | 0.948 µM (active) | 1.38 µM (inactive) | 0.618 µM (active) | 0.798 µM (active) | 0.724 µM (active) | 0.176 µM (active) | 0.426 µM (active) | 0.879 µM (active) | 
9 | Cn1cc(C(=O)C[n+]2ccccc2)c2ccccc21 | 46.1 µM (inactive) | > 100 µM (inactive) | 28.9 µM (inactive) |  | 50.6 µM (inactive) |  | > 100 µM (inactive) |  | 86.9 µM (inactive) |  | > 100 µM (inactive) | 69.2 µM (inactive) | 69.7 µM (inactive) | 83.8 µM (inactive) | > 100 µM (inactive) | > 100 µM (inactive) |  |  |  | 
10 | COC(=O)C1C(C(=O)OC)C2C(=O)C3C(C(=O)OC)C(C(=O)OC)C3C(=O)C12 (stereo unspecified) | > 100 µM (inactive) | > 100 µM (inactive) | > 100 µM (inactive) | 73.5 µM (inactive) | > 100 µM (inactive) | > 100 µM (inactive) |  | > 100 µM (inactive) | > 100 µM (inactive) | > 100 µM (inactive) |  |  | > 100 µM (inactive) | > 100 µM (inactive) | > 100 µM (inactive) |  |  |  |  | 
11 | O=C(Cc1ccccc1)NN1C(=O)C(Cl)C1c1ccccc1O (stereo unspecified) | 8.81 µM (inactive) | 20.4 µM (inactive) |  |  | 21.4 µM (inactive) | 12.8 µM (inactive) | 9.84 µM (inactive) | 23.5 µM (inactive) | 43.6 µM (inactive) | 13.5 µM (inactive) | 4.54 µM (inactive) | 34.8 µM (inactive) | 19.5 µM (inactive) | 12.6 µM (inactive) | 3.98 µM (inactive) | 19.5 µM (inactive) |  |  |  | 
12 | CNC1=Nc2ccc(Cl)cc2C(c2ccccc2)=NN1C | > 100 µM (inactive) | > 100 µM (inactive) | 91.2 µM (inactive) | 27.6 µM (inactive) | > 100 µM (inactive) | > 100 µM (inactive) | 31.3 µM (inactive) | > 100 µM (inactive) | 31.6 µM (inactive) | 57.9 µM (inactive) | 35.5 µM (inactive) | 23.4 µM (inactive) | 42.9 µM (inactive) | > 100 µM (inactive) |  | > 100 µM (inactive) |  |  |  | 
13 | Cc1nc2c(o1)C(=O)c1ccccc1/C2=N\c1ccccc1 | 2.4 µM (inactive) | 1.38 µM (inactive) | > 10 µM (inactive) | 2.27 µM (inactive) |  | 1.76 µM (inactive) | 1.97 µM (inactive) | 2 µM (inactive) | 2.86 µM (inactive) | 4.01 µM (inactive) | 2.98 µM (inactive) | 2.12 µM (inactive) | 1.36 µM (inactive) | 2.45 µM (inactive) | 4.3 µM (inactive) | 2.46 µM (inactive) | 1.62 µM (inactive) | 0.968 µM (active) | 0.292 µM (active) | 
14 | CC[C@@]1(O)C(=O)OCc2c1cc1n(c2=O)Cc2c-1nc1ccccc1c2Cl | 0.56 µM (active) | < 0.01 µM (active) | 0.0237 µM (active) | 0.0724 µM (active) | < 0.01 µM (active) | < 0.01 µM (active) | < 0.0151 µM (active) | 0.204 µM (active) | 0.0767 µM (active) | < 0.01 µM (active) | < 0.01 µM (active) | 0.0123 µM (active) | 0.239 µM (active) | < 0.01 µM (active) | < 0.01 µM (active) | < 0.01 µM (active) | 4.52 µM (inactive) | 8.32 µM (inactive) | 0.069 µM (active) | < 0.01 µM (active)
15 | Cc1noc2c1C(=O)CCC2 | > 100 µM (inactive) |  |  | > 100 µM (inactive) |  |  | > 100 µM (inactive) | > 100 µM (inactive) | > 100 µM (inactive) | > 100 µM (inactive) | > 100 µM (inactive) | > 100 µM (inactive) | > 100 µM (inactive) |  | > 100 µM (inactive) | > 100 µM (inactive) |  |  |  | 
